Measured values published in patent US8586505B2 (SDS Biotech K. K., priority 2009, dated 2013).

Assays:
Type in all cases: in vivo
Phytophthora infestans = assay: whole plant or invertebrate; conditions: in Solanum lycopersicum, 96 h, read-out: Determination of control effect (preventive value)
[1] = test system: Pseudoperonospora cubensis; assay: Test of examining control effect on Pseudoperonospora cubensis (potted cucumber plants); conditions: 96 h, 10% wettable powder adjusted to 125 ppm, 15 ml/pot sprayed on potted cucumber plants one day before spray inoculation, assessed after 1 day wet chamber and 3 days greenhouse, read-out: Determination of control effect (preventive value) on Pseudoperonospora cubensis
Experimental: (§1) Calculation of Preventive Value: Preventive value={(untreated lesion area rate−treated lesion area rate)/untreated lesion area rate}×100
(§2) Using the thus calculated preventive value, the control effect of each compound was determined in accordance with the following standards.
(§3) High control effect: 100%≧preventive value≧60%
(§4) Low control effect: 60%>preventive value≧0%
Using a spray gun, an agent solution prepared by adjusting a 10% wettable powder of each sample compound to 125 ppm (hereinafter referred to as a “sample agent solution”) was sprayed to potted cucumber plants (variety: Sagamihanjiro, 2.5 leave stage) in a concentration of 15 ml/pot. One day after the spraying, a conidial suspension of Pseudoperonospora cubensis (conidial concentration: 1.0×10^4 cells/ml) was applied to the plants by spray inoculation. After completion of the inoculation, the plants were left at 21° C. under wet chamber conditions for 1 day, and were then left in a greenhouse for 3 days, so that they were fully infected with the aforementioned disease. Thereafter, the disease level on each leaf was compared with that on an untreated leaf, and the control effect of each compound was determined in the same manner as in Example 3(1).

Sphaerotheca fuliginea = assay: Test of examining control effect on Sphaerotheca fuliginea (potted cucumber plants); conditions: Podosphaera fuliginea, 336 h; 10% wettable powder adjusted to 125 ppm, 15 ml/pot sprayed on potted cucumber plants one day before spray inoculation; assessed after 14 days in greenhouse; read-out: Determination of control effect (preventive value) on Sphaerotheca fuliginea
Experimental: as §1, §2, §3, §4
Using a spray gun, an agent solution prepared by adjusting a 10% wettable powder of each sample compound to 125 ppm (hereinafter referred to as a “sample agent solution”) was sprayed to potted cucumber plants (variety: Sagamihanjiro, 2nd leave stage) in a concentration of 15 ml/pot. One day after the spraying, a conidial suspension of Sphaerotheca fuliginea (conidial concentration: 1.0×10^5 cells/ml) was applied to the plants by spray inoculation. The plants were left in a greenhouse for 14 days, so that they were fully infected with the aforementioned disease. Thereafter, the disease level on each leaf was compared with that on an untreated leaf, and the control effect of each compound was determined in the same manner as in Example 3(1).

Structure (SMILES) | pest or weed control at 125 ppm (Phytophthora infestans) | pest or weed control at 125 µg/mL [1] | pest or weed control at 125 µg/mL (Sphaerotheca fuliginea)
C[Si](C)(C)C#CCCNc1ncnc2sccc12 [Compound No. 2, 4-(4-Trimethylsilanyl-3-butynylamino)thieno[2,3-d]pyrimidine] | 60 to 100% | 60 to 100% | 60 to 100%
C#CCCNc1ncnc2sccc12 [compound 1, 4-(3-butynylamino)thieno[2,3-d]pyrimidine] | 0 to 60% | 0 to 60% | 0 to 60%
CC[Si](C#CCCNc1ncnc2sccc12)(CC)CC [compound 3] | 0 to 60% | 60 to 100% | 60 to 100%
CC(C)CC#CCCNc1ncnc2sccc12 [compound 7, 4-(6-Methyl-3-heptynylamino)thieno[2,3-d]pyrimidine] | 60 to 100% | 60 to 100% | 60 to 100%
CC(C)(C)C#CCCNc1ncnc2sccc12 [compound 8] | 60 to 100% | 60 to 100% | 60 to 100%
C(#CCc1ccccc1)CCNc1ncnc2sccc12 [compound 9] | 0 to 60% | 60 to 100% | 60 to 100%
Fc1ccccc1C#CCCNc1ncnc2sccc12 [compound 11] | 60 to 100% | 60 to 100% | 60 to 100%
Fc1cccc(C#CCCNc2ncnc3sccc23)c1 [compound 12] | 0 to 60% | 60 to 100% | 60 to 100%
Fc1ccc(C#CCCNc2ncnc3sccc23)cc1 [compound 13] | 0 to 60% | 60 to 100% | 60 to 100%
Clc1ccccc1C#CCCNc1ncnc2sccc12 [compound 14] | 0 to 60% | 60 to 100% | 60 to 100%
Clc1cccc(C#CCCNc2ncnc3sccc23)c1 [compound 15] | 0 to 60% | 60 to 100% | 60 to 100%
Cc1ccccc1C#CCCNc1ncnc2sccc12 [compound 17] | 60 to 100% | 60 to 100% | 60 to 100%
COc1ccccc1C#CCCNc1ncnc2sccc12 [compound 21] | 60 to 100% | 60 to 100% | 0 to 60%
COc1ccc(C#CCCNc2ncnc3sccc23)cc1 [compound 23] | 60 to 100% | 60 to 100% | 60 to 100%
FC(F)(F)c1ccccc1C#CCCNc1ncnc2sccc12 [compound 25] | 60 to 100% | 60 to 100% | 60 to 100%
FC(F)(F)c1ccc(C#CCCNc2ncnc3sccc23)cc1 [compound 27] | 0 to 60% | 60 to 100% | 60 to 100%
COC(=O)c1ccc(C#CCCNc2ncnc3sccc23)cc1 [compound 31] | 0 to 60% | 60 to 100% | 0 to 60%
FC(F)(F)Oc1ccccc1C#CCCNc1ncnc2sccc12 [compound 32] | 60 to 100% | 60 to 100% | 
FC(F)(F)Oc1cccc(C#CCCNc2ncnc3sccc23)c1 [compound 33] | 60 to 100% | 60 to 100% | 
FC(F)(F)Oc1ccc(C#CCCNc2ncnc3sccc23)cc1 [compound 34] | 60 to 100% | 60 to 100% | 
N#Cc1ccccc1C#CCCNc1ncnc2sccc12 [compound 35] | 60 to 100% | 60 to 100% | 
N#Cc1cccc(C#CCCNc2ncnc3sccc23)c1 [compound 36] | 60 to 100% | 60 to 100% | 
